Test results: PMC10428205, “Cytotoxicity of Ruthenium(II) Arene Complexes Containing Functionalized Ferrocenyl β-Diketonate Ligands” (Organometallics, 2023)
Several values for one entry are separate records, joined by “and”; a condition that tells them apart may be missing. Equal entries are not always repeated. Where two headings read alike, the source gives them in different places.

Key:
MIA PaCa-2 [1] = format: cell-based; conditions: for Selectivity index (SI), IC50 ARPE-19 / IC50 MIA PaCa-2: 96 h, * = minimum value as at least one IC50 > 100; for IC50: 96 h MTT, normoxic, ± SD, read-out: IC50 against MIA PaCa-2
Procedure: (§1) LogP = Log ( [C]final ) Eqn1
(§2) 96 h Chemosensitivity Studies
(§3) In vitro chemosensitivity tests were performed at both the University of Huddersfield and the Institute of Cancer Therapeutics, Bradford, in a sterile Class II Biological Safety Cabinet fitted with a HEPA filtered laminar airflow.
Cellular assays were conducted against human pancreatic carcinoma (MIA PaCa-2), human colorectal carcinoma p53-wildtype (HCT116 p53+/+), and human non-cancerous epithelial retinal cells (ARPE-19). […]
were obtained from the American Type Culture Collection and provided by the University of Huddersfield. All cell lines were routinely maintained as monolayer cultures in appropriate complete medium and maintained in either […]
T-25 or T-75 flasks at 37 °C and 5% CO2.
10% foetal calf serum. All medium was supplemented with sodium pyruvate (1 mM) and L-glutamine (2 mM), and prior to chemosensitivity studies, cell monolayers were passaged using Trypsin-EDTA and diluted to a […]
cells/mL cell suspension was added to each well and incubated for 24 h at 37 °C and 5% CO2. After 24 h, 100 mL of drug dilutions (fresh 100 mM stock solutions in DMSO) in media were added to the plates and then incubated for a further 96 h at 37°C and 5% CO2 (48 h + 48 h recovery period were used for the shorter exposures with MIA PaCa-2 cells only). After 96 h, 20 mL MTT (3-(4,5-dimethylthiazol-2-yl)-2,5-diphenyltetrazolium bromide, 5 mg/mL) was added to each well and incubated for 3 h at 37 °C and 5% CO2. All solutions were then removed from the 96-well plates via pipette and […] of DMSO added to each well to dissolve the purple formazan […]
FC spectrophotometer microplate reader. Using the blank and 100% cell controls, the % cell viability was determined [(abs. of compound containing wells – abs. media wells)/(abs. 100% cell suspension well control)] and from this the % cell death (100%- % cell viability) was calculated. On a logarithmic scale, the percentage cell death was plotted against the concentration of compound, and from this the half maximal inhibitory concentration (IC50) value was determined. Each of the experiments were performed in triplicate with mean values being stated as the IC50 ± Standard Deviation (SD). […]

ARPE-19 = test: 96 h MTT chemosensitivity assay, normal cells; format: cell-based, human; conditions: normal retinal epithelial cells, ± SD, read-out: IC50 against ARPE-19
Procedure: as §1, §2, §3
(§4) Cellular assays were conducted against human pancreatic carcinoma (MIA PaCa-2), human colorectal carcinoma p53-wildtype (HCT116 p53+/+), and human non-cancerous epithelial retinal cells (ARPE-19). The ARPE-19 cells were obtained from the American Type Culture Collection and provided by the University of Huddersfield. All cell lines were routinely maintained as monolayer cultures in appropriate complete medium and maintained in either T-25 or T-75 flasks at 37 °C and 5% CO2. MIA PaCa-2 and ARPE-19 cells were cultured in high glucose DMEM-F12 medium containing 10% foetal calf serum, and HCT116 p53+/+ was cultured in RPMI 1640 supplemented with 10% foetal calf serum. All medium was supplemented with sodium pyruvate (1 mM) and L-glutamine (2 mM), and prior to chemosensitivity studies, cell monolayers were passaged using Trypsin-EDTA and diluted to a concentration of 1 x 10^4 cells/mL. All assays were conducted using 96-well plates, in which […] of the 1 x 10^4 cells/mL cell suspension was added to each well and incubated for 24 h at 37 °C and 5% CO2. […] After mixing well, the absorbance of each well was measured at 540 nm using a ThermoFisher Multiskan FC spectrophotometer microplate reader. Using the blank and 100% cell controls, the % cell viability was determined [(abs. of compound containing wells – abs. media wells)/(abs. 100% cell suspension well control)] and from this the % cell death (100%- % cell viability) was calculated. On a logarithmic scale, the percentage cell death was plotted against the concentration of compound, and from this the half maximal inhibitory concentration (IC50) value was determined. […]

HCT116 p53+/+ = test: 96 h MTT chemosensitivity assay; format: cell-based, human; conditions: for Selectivity index (SI), IC50 ARPE-19 / IC50 HCT116 p53+/+: 96 h, * = minimum value as at least one IC50 > 100; for IC50: 96 h MTT, ± SD, read-out: IC50 against HCT116 p53+/+
Procedure: as §1, §2, §3
Cellular assays were conducted against human pancreatic carcinoma (MIA PaCa-2), human colorectal carcinoma p53-wildtype (HCT116 p53+/+), and human non-cancerous epithelial retinal cells (ARPE-19). The ARPE-19 cells were obtained from the American Type Culture Collection and provided by the University of Huddersfield. All cell lines were routinely maintained as monolayer cultures in appropriate complete medium and maintained in either T-25 or T-75 flasks at 37 °C and 5% CO2. MIA PaCa-2 and ARPE-19 cells were cultured in high glucose DMEM-F12 medium containing 10% foetal calf serum, and HCT116 p53+/+ was cultured in RPMI 1640 supplemented with 10% foetal calf serum. All medium was supplemented with sodium pyruvate (1 mM) and L-glutamine (2 mM), and prior to chemosensitivity studies, cell monolayers were passaged using Trypsin-EDTA and diluted to a concentration of 1 x 10^4 cells/mL. All assays were conducted using 96-well plates, in which […] of the 1 x 10^4 cells/mL cell suspension was added to each well and incubated for 24 h at 37 °C and 5% CO2. After 24 h, 100 mL of drug dilutions (fresh 100 mM stock solutions in DMSO) in media were added to the plates and then incubated for a further 96 h at 37°C and 5% CO2 (48 h + 48 h recovery period were used for the shorter exposures with MIA PaCa-2 cells only). After 96 h, 20 mL MTT (3-(4,5-dimethylthiazol-2-yl)-2,5-diphenyltetrazolium bromide, 5 mg/mL) was added to each well and incubated for 3 h at 37 °C and 5% CO2. All solutions were then removed from the 96-well plates via pipette and […] of DMSO added to each well to dissolve the purple formazan crystals. After mixing well, the absorbance of each well was measured at 540 nm using a ThermoFisher Multiskan FC spectrophotometer microplate reader. Using the blank and 100% cell controls, the % cell viability was determined [(abs. of compound containing wells – abs. media wells)/(abs. 100% cell suspension well control)] and from this the % cell death (100%- % cell viability) was calculated. On a logarithmic scale, the percentage cell death was plotted against the concentration of compound, and from this the half maximal inhibitory concentration (IC50) value was determined. Each of the experiments were performed in triplicate with mean values being stated as the IC50 ± Standard Deviation (SD). […]
(§5) All assays were conducted in triplicate.

MIA PaCa-2 [2] = test: 24 and 48 h chemosensitivity (MTT, with recovery period); format: cell-based, human
Procedure: as §1, §2, §3
Cellular assays were conducted against human pancreatic carcinoma (MIA PaCa-2), human colorectal carcinoma p53-wildtype (HCT116 p53+/+), and human non-cancerous epithelial retinal cells (ARPE-19). The ARPE-19 cells were obtained from the American Type Culture Collection and provided by the University of Huddersfield. All cell lines were routinely maintained as monolayer cultures in appropriate complete medium and maintained in either T-25 or T-75 flasks at 37 °C and 5% CO2. MIA PaCa-2 and ARPE-19 cells were cultured in high glucose DMEM-F12 medium containing 10% foetal calf serum, and HCT116 p53+/+ was cultured in RPMI 1640 supplemented with 10% foetal calf serum. All medium was supplemented with sodium pyruvate (1 mM) and L-glutamine (2 mM), and prior to chemosensitivity studies, cell monolayers were passaged using Trypsin-EDTA and diluted to a concentration of 1 x 10^4 cells/mL. All assays were conducted using 96-well plates, in which […] of the 1 x 10^4 cells/mL cell suspension was added to each well and incubated for 24 h at 37 °C and 5% CO2. After 24 h, 100 mL of drug dilutions (fresh 100 mM stock solutions in DMSO) in media were added to the plates and then incubated for a further 96 h at 37°C and 5% CO2 (48 h + 48 h recovery period were used for the shorter exposures with MIA PaCa-2 cells only). After 96 h, 20 mL MTT (3-(4,5-dimethylthiazol-2-yl)-2,5-diphenyltetrazolium bromide, 5 mg/mL) was added to each well and incubated for 3 h at 37 °C and 5% CO2. All solutions were then removed from the 96-well plates via pipette and […] of DMSO added to each well to dissolve the purple formazan crystals. After mixing well, the absorbance of each well was measured at 540 nm using a ThermoFisher Multiskan FC spectrophotometer microplate reader. Using the blank and 100% cell controls, the % cell viability was determined [(abs. of compound containing wells – abs. media wells)/(abs. 100% cell suspension well control)] and from this the % cell death (100%- % cell viability) was calculated. On a logarithmic scale, the percentage cell death was plotted against the concentration of compound, and from this the half maximal inhibitory concentration (IC50) value was determined. Each of the experiments were performed in triplicate with mean values being stated as the IC50 ± Standard Deviation (SD).
24 and 48 h Chemosensitivity Studies
The same experimental protocol described for the 96 h MTT assay was used, and the MIA PaCa-2 cells were incubated for either 24 or 48 h, with a 72 or 48 h recovery period respectively. […]
as §5

MIA PaCa-2 [3] = test: Chemosensitivity under hypoxic conditions (0.1% O2, 96 h MTT); format: cell-based, human; conditions: MIA PaCa-2, 0.1% O2, 96 h MTT
Procedure: as §1, §2, §3, §4

MIA PaCa-2 [4] = conditions: read-out: IC50 against MIA PaCa-2 (previously reported analogue); cited from earlier work

IC50 (MIA PaCa-2 [2]; MIA PaCa-2, 24 h exposure + 72 h recovery, read-out: IC50 values ± SD, 24 h) [µM] | IC50 (MIA PaCa-2 [2]; MIA PaCa-2, 48 h exposure + 48 h recovery, read-out: IC50 values ± SD, 48 h) [µM] | E0′ (Fc*/Fc*+) (Cyclic voltammetry; 0.1 M TBAPF6 in acetonitrile, vs SCE, Fc/Fc+ = 0.40 V internal standard) [V] | EP Red (Cyclic voltammetry; irreversible reduction, vs SCE) | E0’ (Fc*/Fc*+) at 0.05 V/s (Cyclic voltammetry; scan speed 0.05 V/s) [V] | E0’ (Fc*/Fc*+) at 0.10 V/s (Cyclic voltammetry; scan speed 0.10 V/s) [V] | E0’ (Fc*/Fc*+) at 0.25 V/s (Cyclic voltammetry; scan speed 0.25 V/s) [V] | Molecule | Selectivity index (SI), IC50 ARPE-19 / IC50 MIA PaCa-2 (MIA PaCa-2 [1]) | IC50 (MIA PaCa-2 [1]) [µM] | IC50 (ARPE-19) | Selectivity index (SI), IC50 ARPE-19 / IC50 HCT116 p53+/+ (HCT116 p53+/+) | IC50 (HCT116 p53+/+) [µM] | IC50 under hypoxic conditions (MIA PaCa-2 [3]) | IC50 (MIA PaCa-2 [4]) [µM]
 |  |  |  |  |  |  | N.N.O=C([O-])C1(C(=O)[O-])CCC1.[Pt+2] [CARB, carboplatin, reference compound] | 2.2 | 36 ± 3 | 77 ± 10 µM | 2.4 | 32 ± 11 |  | 
> 100 | 43 ± 1 | 0.63 | –1.70 V | 0.64 | 0.63 | 0.63 | O=C(C=C(O)c1ccco1)[c-]1cccc1.[Fe+2].c1cc[cH-]c1 [Complex L4] |  | 42.1 ± 0.8 |  |  |  |  | 
 |  |  |  |  |  |  | O=C1[O][Pt]2([NH][C@@H]3CCCC[C@H]3[NH]2)[O]C1=O [OXA, oxaliplatin, reference compound] | 0.5 | 6 ± 1 | 3 µM and 6 µM | 3.2 | 0.9 ± 0.1 | decrease in cytotoxicity | 
 |  |  |  |  |  |  | [(bpy)2(Fc-acac)Ru][PF6] [Figure 1F] |  |  |  |  |  |  | 0.11 ± 0.01
